{"source": "patent US20070077283A1", "about": "“METHOD OF ENHANCING TRANSMUCOSAL DELIVERY OF THERAPEUTIC COMPOUNDS” (Nastech Pharmaceutical Company Inc., priority 2005, published 2007)", "key": {"[1]": {"tested_on": "ciliary function in epithelial cell cultures", "details": "Hingley et al. 1986; cited from earlier work"}, "[2]": {"tested_on": "human-derived tracheal/bronchial epithelial cells (EpiAirway Tissue Model)", "assay": "Transepithelial electrical resistance (TER) of an epithelial cell monolayer", "format": "cell-based", "details": "lipid 500 μM / PYY 13.67 mg/mL (High)", "procedure,_shortened": "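EpiAirway human tracheal/bronchial epithelial tissue inserts, fed daily during recovery; resistance read with EVOM voltohmmeter in Endohm-12 chamber in MatTek medium, blank-insert background (about 5-20 ohms) measured. TER normalised to tissue surface area, expressed as Ohms*cm2 and percent of original TER; lower TER taken as enhanced permeation.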"}, "[3]": {"tested_on": "human-derived tracheal/bronchial epithelial cells (EpiAirway Tissue Model)", "assay": "FITC-Dextran permeation assay across epithelial cell monolayer", "format": "cell-based", "details": "lipid 500 μM (Table 5)", "procedure,_shortened": "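Formulations applied apically to EpiAirway tissue inserts, shaken ~100 rpm 1.5 hours at 37 °C, with FITC-dextran (3-500 kDa) added apically. Basolateral fluorescence read at 470 nm in triplicate; result expressed as percent of FITC-dextran crossing apical to basolateral.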"}, "[4]": {"tested_on": "human-derived tracheal/bronchial epithelial cells (EpiAirway Tissue Model)", "assay": "Cell viability (MTT assay)", "format": "cell-based", "protocol": "Cell viability will be assessed using the MTT assay (MTT-100, MatTek kit). This kit measures the uptake and transformation of tetrazolium salt to formazan dye. Thawed and diluted MTT concentrate is prepared 1 hour prior to the end of the dosing period with the lipid by mixing 2 mL of MTT concentrate with 8 mL of MTT diluent. Each cell culture insert is washed twice with PBS containing Ca^+2 and Mg^+2 and then transferred to a new 96-well transport plate containing 100 μL of the mixed MTT solution per well. This 96-well transport plate is then incubated for three hours at 37° C. and 5% CO2. After the three hour incubation, the MTT solution is removed and the cultures are transferred to a second 96-well feeder tray containing 250 μL MTT extractant solution per well. An additional 150 μL of MTT extractan solution was added to the surface of each culture well and the samples sat at room temperature in the dark for a minimum of two hours and maximum of 24 hours. The insert membrane was then pierced with a pipet tip and the solutions in the upper and lower wells were allowed to mix. Two hundred microliters of the mixed extracted solution along with extracted blanks (negative control) was transferred to a 96-well plate for measurement with a microplate reader. The optical density (OD) of the samples was measured at 570 nm with the background subtraction at 650 nm on a plate reader. Cell viability was expressed as a percentage and calculated by dividing the OD readings for treated inserts by the OD readings for the PBS treated inserts and multiplying by 100. For the purposes of this assay, it was assumed that PBS had no effect on cell viability and therefore represented 100% cell viability."}, "[5]": {"tested_on": "human-derived tracheal/bronchial epithelial cells (EpiAirway Tissue Model)", "assay": "TER recovery / TER time course", "format": "cell-based", "details": "lipids 500 μM, PN159 25 μM", "protocol": "TER recovery was calculated as described in the above paragraph.\nReversibility is a critical factor in selecting epithelial cell permeabiling enhancers since the barrier function of the epithelial cells serves as the first line of defense against pathogens and the entrance of toxins into the body. The permeation enhancing lipids C16 PAF; C18 PAF; C16 Enantiomeric PAF; POVPC; C16-04: 1 PC and PGPC were incubated with a monolayer of human-derived tracheal/bronchial epithelial cells (EpiAirway™ Model System) and TER […] The lipid glucosyl sphingosine was also tested. Each permeation enhancing lipid (except PGPC) was applied at a concentration of 1000 μM for 15, 30 and 60 minutes. The permeation enhancing lipid PGPC and the lipid glucosyl sphingosine were applied at a concentration of 500 μM for 1, 3, 5, 30 and 60 minutes. TER measurements were taken immediately after each application to determine how quickly each lipid could reduce TER.\n[…] […] PBS served as a negative control and Triton-X100™ served as a positive control.\nTo asses how quickly the cells recovered after application and removal of the permeation enhancing lipid PGPC and the lipid glucosyl sphingosine, TER measurements were taken at 1, 3, 5, 7, and 9 hours post-treamtnet for each of the prior mentioned timed treatments (i.e., 1, 3, 5, 15, 30 and 60 minutes). TER recovery measures the reversibility of the lipid mediated effect on an epithelia. […] Hyptonic PBS served as a negative control for TER reduction and TER recovery."}, "[6]": {"tested_on": "human-derived tracheal/bronchial epithelial cells (EpiAirway Tissue Model)", "assay": "Peptide YY (PYY) permeation across epithelial cell monolayer", "format": "cell-based", "details": "lipid 500 μM / PYY 13.67 mg/mL (High)", "protocol": "Permeation is expressed as percent permeation and was calculated as follows: [formula] [formula] Terms\nIn the instant example, the ability of permeation enhancing lipids to enhance the permeation of the biological agent, peptide YY (PYY; molecular weight of 3.7 kDa) across the epithelial cell monolayer model system (EpiAirway™) was measured. Also, the efficacy of a permeation enhancing lipid to enhance the permeation of insulin across and epithelial cell layer was measured. Refer to Example 2 of the instant application for general protocol details."}}, "data": [{"compound": "2-alkyl-4-hydroxyquinolines [pyo compound]", "values": [{"measurement": "concentration producing ciliostasis / inhibiting ciliary motility", "setting": "[1]", "value": 50, "unit": "µg/mL"}]}, {"compound": "CCCCCCCCCCCCC/C=C/[C@@H](O)[C@@H](N)CO[C@@H]1O[C@H](CO)[C@@H](O)[C@H](O)[C@H]1O", "note": "[Glucosyl-sphingosine, D-Glucosyl-β1-1′-D-erythro-Sphingosine]", "values": [{"measurement": "% Original TER", "setting": "[2]; listed as Glucosyl Sphingosine", "value": 12, "unit": "%"}, {"measurement": "% Original TER", "setting": "[2]; listed as glucosyl sphingosine", "value": "reduced TER to levels equivalent of PN159"}, {"measurement": "% FITC-Dextran Permeation FD3", "setting": "[3]", "value": 4, "unit": "%"}, {"measurement": "MTT levels (cell viability)", "setting": "[4]; compared with PBS negative control (Example 5)", "value": "MTT levels comparable to that of the PBS negative control"}, {"measurement": "% Cell Viability", "setting": "[4]; lipid 500 μM / PYY 13.67 mg/mL (High)", "value": 109, "unit": "%"}, {"measurement": "time to full TER recovery (PBS control levels)", "setting": "[5]; after 1, 3, 5, 15 and 30 minute treatments", "value": "fully recovered within one hour"}, {"measurement": "time to full TER recovery (PBS control levels)", "setting": "[5]; after 60 minute treatment", "value": "did not reach PBS TER control levels until three hours post-treatment"}, {"measurement": "% PYY Permeation", "setting": "[6]", "value": 1.17, "unit": "%"}]}, {"compound": "rhamnolipid", "values": [{"measurement": "effect of limited exposure of tracheal explants", "setting": "[1]", "value": "ciliostasis"}]}]}
